From PubChem BioAssay (NCI)
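Where inhibition never reached the appropriate level, the endpoint shown equals the highest concentration tested. Otherwise, values were interpolated linearly from a five-concentration, 48-hour dose response in 96-well plates. GI50: concentration for 50% inhibition of growth. TGI: concentration producing complete growth inhibition.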

Columns and labels:
Assay in all cases: inhibition of tumour cell growth, NCI panel, 48 h
[1] = tested on: 786-0 renal
[2] = tested on: A498 renal
[3] = tested on: A549 NSCLC
[4] = tested on: ACHN renal
[5] = tested on: BT-549 breast
[6] = tested on: CAKI-1 renal
[7] = tested on: CCRF-CEM leukemia
[8] = tested on: COLO 205 colon
[9] = tested on: DU-145 prostate
[10] = tested on: EKVX NSCLC
[11] = tested on: HCC-2998 colon
[12] = tested on: HCT-116 colon
[13] = tested on: HCT-15 colon
[14] = tested on: HL-60(TB) leukemia
[15] = tested on: HOP-62 NSCLC
[16] = tested on: HS 578T breast
[17] = tested on: HT29 colon
[18] = tested on: IGROV1 ovarian
[19] = tested on: K-562 leukemia
[20] = tested on: KM12 colon
[21] = tested on: LOX IMVI melanoma
[22] = tested on: M14 melanoma
[23] = tested on: MALME-3M melanoma
[24] = tested on: MCF7 breast
[25] = tested on: MDA-MB-231 breast
[26] = tested on: MDA-MB-435
[27] = tested on: MOLT-4 leukemia
[28] = tested on: NCI-H226 lung
[29] = tested on: NCI-H23 lung
[30] = tested on: NCI-H460 lung
[31] = tested on: NCI-H522 lung
[32] = tested on: NCI/ADR-RES ovarian
[33] = tested on: OVCAR-3 ovarian
[34] = tested on: OVCAR-4 ovarian
[35] = tested on: OVCAR-5 ovarian
[36] = tested on: OVCAR-8 ovarian
[37] = tested on: PC-3 prostate
[38] = tested on: RPMI-8226 leukemia
[39] = tested on: RXF 393 renal
[40] = tested on: SF-268 CNS
[41] = tested on: SF-295 CNS
[42] = tested on: SF-539 CNS
[43] = tested on: SK-MEL-2 melanoma
[44] = tested on: SK-MEL-28 melanoma
[45] = tested on: SK-MEL-5 melanoma
[46] = tested on: SK-OV-3 ovarian
[47] = tested on: SN12C renal
[48] = tested on: SNB-19 CNS
[49] = tested on: SW-620 colon
[50] = tested on: T-47D breast
[51] = tested on: TK-10 renal
[52] = tested on: U251 CNS
[53] = tested on: UACC-257 melanoma
[54] = tested on: UACC-62 melanoma
[55] = tested on: UO-31 renal
[56] = tested on: HOP-92 NSCLC
[57] = tested on: SNB-75 CNS

`CN(CCCCCl)P(=O)(OCc1ccc([N+](=O)[O-])o1)OCC1OC(n2cc([N+](=O)[O-])c(=O)[nH]c2=O)CC1O` (configuration not stated) was tested, and the GI50 [1] was 12.7 µM, the TGI [1] was > 100 µM and the GI50 [2] was 29.6 µM. The TGI [2] was > 100 µM, the GI50 [3] was > 100 µM and the TGI [3] was > 100 µM. The GI50 [4] was 17.5 µM, the TGI [4] was > 100 µM and the GI50 [5] was 46.2 µM. The TGI [5] was > 100 µM, the GI50 [6] was 48.5 µM and the TGI [6] was > 100 µM. The GI50 [7] was 66.8 µM, the TGI [7] was > 100 µM and the GI50 [8] was 44 µM. The TGI [8] was > 100 µM, the GI50 [9] was > 100 µM and the TGI [9] was > 100 µM. For the same molecule, the GI50 [10] was > 100 µM, the TGI [10] was > 100 µM and the GI50 [11] was 37.7 µM. For the same molecule, the TGI [11] was > 100 µM, the GI50 [12] was 66.5 µM and the TGI [12] was > 100 µM. For the same molecule, the GI50 [13] was > 100 µM, the TGI [13] was > 100 µM and the GI50 [14] was > 100 µM. For the same molecule, the TGI [14] was > 100 µM, the GI50 [15] was 41.2 µM and the TGI [15] was > 100 µM. For the same molecule, the GI50 [16] was > 100 µM, the TGI [16] was > 100 µM and the GI50 [17] was > 100 µM. For the same molecule, the TGI [17] was > 100 µM, the GI50 [18] was > 100 µM and the TGI [18] was > 100 µM. The GI50 [19] was 49.8 µM, the TGI [19] was > 100 µM and the GI50 [20] was > 100 µM. For the same molecule, the TGI [20] was > 100 µM, the GI50 [21] was 47.3 µM and the TGI [21] was > 100 µM. The GI50 [22] was 31.3 µM, the TGI [22] was > 100 µM and the GI50 [23] was > 100 µM. The TGI [23] was > 100 µM, the GI50 [24] was 22.8 µM and the TGI [24] was > 100 µM. The GI50 [25] was > 100 µM, the TGI [25] was > 100 µM and the GI50 [26] was > 100 µM. The TGI [26] was > 100 µM, the GI50 [27] was 25.1 µM and the TGI [27] was > 100 µM. The GI50 [28] was 42.3 µM, the TGI [28] was > 100 µM and the GI50 [29] was 75.2 µM. The TGI [29] was > 100 µM, the GI50 [30] was 3.01 µM and the TGI [30] was > 100 µM. For the same molecule, the GI50 [31] was > 100 µM, the TGI [31] was > 100 µM and the GI50 [32] was > 100 µM. The TGI [32] was > 100 µM, the GI50 [33] was 43.6 µM and the TGI [33] was > 100 µM. The GI50 [34] was 9.75 µM, the TGI [34] was 84.8 µM and the GI50 [35] was > 100 µM. For the same molecule, the TGI [35] was > 100 µM, the GI50 [36] was 41.6 µM and the TGI [36] was > 100 µM. For the same molecule, the GI50 [37] was > 100 µM, the TGI [37] was > 100 µM and the GI50 [38] was > 100 µM. For the same molecule, the TGI [38] was > 100 µM, the GI50 [39] was > 100 µM and the TGI [39] was > 100 µM. For the same molecule, the GI50 [40] was 3 µM, the TGI [40] was > 100 µM and the GI50 [41] was 49.8 µM. For the same molecule, the TGI [41] was > 100 µM, the GI50 [42] was 4.51 µM and the TGI [42] was > 100 µM. For the same molecule, the GI50 [43] was > 100 µM, the TGI [43] was > 100 µM and the GI50 [44] was 45.9 µM. The TGI [44] was > 100 µM, the GI50 [45] was > 100 µM and the TGI [45] was > 100 µM. The GI50 [46] was 96.4 µM, the TGI [46] was > 100 µM and the GI50 [47] was 51.9 µM. For the same molecule, the TGI [47] was > 100 µM, the GI50 [48] was > 100 µM and the TGI [48] was > 100 µM. For the same molecule, the GI50 [49] was > 100 µM, the TGI [49] was > 100 µM and the GI50 [50] was > 100 µM. The TGI [50] was > 100 µM, the GI50 [51] was > 100 µM and the TGI [51] was > 100 µM. The GI50 [52] was > 100 µM, the TGI [52] was > 100 µM and the GI50 [53] was > 100 µM. The TGI [53] was > 100 µM, the GI50 [54] was 49.2 µM and the TGI [54] was > 100 µM. For the same molecule, the GI50 [55] was > 100 µM and the TGI [55] was > 100 µM.

`CCc1c(C)c2cc(-n3c(-c4ccc(OC)cc4)csc3=N)c(O)c(C)c2oc1=O` showed a GI50 [1] of 1.7 µM, a TGI [1] of 4.72 µM and a GI50 [2] of 1.94 µM. It also gave a TGI [2] of 8.72 µM, a GI50 [3] of 2.7 µM and a TGI [3] of 12.3 µM. It also gave a GI50 [4] of 1.53 µM, a TGI [4] of 3.6 µM and a GI50 [5] of 1 µM. For the same molecule, the TGI [5] was 5.02 µM, the GI50 [7] was 1.54 µM and the TGI [7] was > 100 µM. The GI50 [8] was 1.94 µM, the TGI [8] was 4.88 µM and the GI50 [9] was 3 µM. It also gave a TGI [9] of 12.3 µM, a GI50 [10] of 1.24 µM and a TGI [10] of 11.1 µM. The GI50 [11] was 3.09 µM, the TGI [11] was 10.2 µM and the GI50 [12] was 1.23 µM. The TGI [12] was 2.99 µM, the GI50 [13] was 1.21 µM and the TGI [13] was 3.95 µM. The GI50 [15] was 1.67 µM, the TGI [15] was 8.53 µM and the GI50 [56] was 1.88 µM. For the same molecule, the TGI [56] was 7.76 µM, the GI50 [16] was 2.1 µM and the TGI [16] was > 100 µM. The GI50 [17] was 1.74 µM, the TGI [17] was 6.12 µM and the GI50 [18] was 1.08 µM. The TGI [18] was 5.25 µM, the GI50 [20] was 1.32 µM and the TGI [20] was 8.37 µM. It also gave a GI50 [22] of 1.41 µM, a TGI [22] of 6.59 µM and a GI50 [23] of 1.73 µM. The TGI [23] was 6.26 µM, the GI50 [24] was 0.82 µM and the TGI [24] was 3.07 µM. The GI50 [25] was 1.52 µM, the TGI [25] was 6.39 µM and the GI50 [26] was 0.355 µM. The TGI [26] was 4.16 µM, the GI50 [27] was 1.54 µM and the TGI [27] was > 100 µM. The GI50 [28] was 2.13 µM, the TGI [28] was 9.73 µM and the GI50 [29] was 1.51 µM. For the same molecule, the TGI [29] was 5.16 µM, the GI50 [30] was 2.25 µM and the TGI [30] was 10.6 µM. The GI50 [31] was 0.646 µM, the TGI [31] was 2.46 µM and the GI50 [32] was 1.62 µM. For the same molecule, the TGI [32] was 10.6 µM, the GI50 [33] was 1.19 µM and the TGI [33] was 3.08 µM. It also gave a GI50 [34] of 1.52 µM, a TGI [34] of 4.43 µM and a GI50 [35] of 2.19 µM. The TGI [35] was 4.75 µM, the GI50 [36] was 2.24 µM and the TGI [36] was 8.28 µM. The GI50 [37] was 0.752 µM, the TGI [37] was > 100 µM and the GI50 [39] was 1.74 µM. It also gave a TGI [39] of 6.7 µM, a GI50 [40] of 2.1 µM and a TGI [40] of 10.3 µM. The GI50 [41] was 1.52 µM, the TGI [41] was 10.3 µM and the GI50 [42] was 2.14 µM. The TGI [42] was 7.25 µM, the GI50 [43] was 1.66 µM and the TGI [43] was 5.84 µM. The GI50 [44] was 1.55 µM, the TGI [44] was 4.42 µM and the GI50 [46] was 2.85 µM. For the same molecule, the TGI [46] was 34.4 µM, the GI50 [47] was 1.82 µM and the TGI [47] was 4.89 µM. For the same molecule, the GI50 [48] was 2.36 µM, the TGI [48] was 8.86 µM and the GI50 [57] was 1.67 µM. The TGI [57] was > 100 µM, the GI50 [49] was 1.32 µM and the TGI [49] was 3.28 µM. For the same molecule, the GI50 [50] was 0.551 µM, the TGI [50] was 4.24 µM and the GI50 [51] was 4.36 µM. The TGI [51] was 8.35 µM, the GI50 [52] was 1.77 µM and the TGI [52] was 6.09 µM. It also gave a GI50 [53] of 3.15 µM, a TGI [53] of 14.2 µM and a GI50 [54] of 1 µM. It also gave a TGI [54] of 2.94 µM, a GI50 [55] of 0.687 µM and a TGI [55] of 3.65 µM.
